The values below come from ChEMBL document CHEMBL1138636, “Potent inhibitors of the HIV-1 protease incorporating cyclic urea P1-P2 scaffold” (Bioorg Med Chem Lett, 2004).

This assay concerns the target Human immunodeficiency virus type 1 protease (Human immunodeficiency virus 1, UniProt Q72874). Description: Potency to inhibit HIV-1 protease.
The Ki is a measure of affinity in units of concentration, obtained from inhibition or displacement. On to `CS(=O)(=O)c1ccc(CN2CC(Cc3ccccc3)N(C[C@@H](O)C[C@@H](Cc3ccccc3)C(=O)NC3c4ccccc4C[C@H]3O)C2=O)cc1` (stereo not given in full), for which the Ki was 300 nM.
As for `O=C(NC1c2ccccc2C[C@H]1O)[C@H](Cc1ccccc1)C[C@H](O)CN1C(=O)[C@@H](Cc2ccccc2)CC1Cc1ccccc1` (stereo not given in full), the affinity corresponds to a Ki of 0.06 nM. This Ki is about 5000-fold lower than that of the compound before.
`O=C(NC1c2ccccc2C[C@H]1O)[C@H](Cc1ccccc1)C[C@H](O)CN1C(=O)N(Cc2ccccc2)CC1Cc1ccccc1` (stereo not given in full) had a Ki of 1.2 nM.
In turn, `Cc1cc(CN2CC(Cc3ccccc3)N(C[C@@H](O)C[C@@H](Cc3ccccc3)C(=O)NC3c4ccccc4C[C@H]3O)C2=O)cc(C)c1C` (stereo not given in full) had a Ki of 100 nM.
With `O=C(NC1c2ccccc2C[C@H]1O)[C@H](Cc1ccccc1)C[C@H](O)CN1C(=O)N(Cc2ccccn2)CC1Cc1ccccc1` (stereo not given in full) the figure was 41 nM; with `C[C@]1(Cc2ccccc2)C[C@H](Cc2ccccc2)N(C[C@@H](O)C[C@@H](Cc2ccccc2)C(=O)N[C@H]2c3ccccc3C[C@H]2O)C1=O`, 170 nM.
Turning to `O=C(NC1c2ccccc2C[C@H]1O)[C@H](Cc1ccccc1)C[C@H](O)CN1C(=O)N(Cc2cccnc2)CC1Cc1ccccc1` (stereo not given in full), the Ki is 18 nM.
For `O=C(NC1c2ccccc2C[C@H]1O)[C@H](Cc1ccccc1)C[C@H](O)CN1C(=O)N(Cc2ccncc2)CC1Cc1ccccc1` (stereo not given in full), the affinity, expressed as Ki, was 190 nM.
The compound `COc1ccc(CN2CC(Cc3ccccc3)N(C[C@@H](O)C[C@@H](Cc3ccccc3)C(=O)NC3c4ccccc4C[C@H]3O)C2=O)cc1` (stereo not given in full) displayed a Ki of 5.6 nM.
The figure for `O=C(NC1c2ccccc2C[C@H]1O)[C@H](Cc1ccccc1)C[C@H](O)CN1C(=O)N(Cc2cccc(F)c2)CC1Cc1ccccc1` (stereo not given in full) is 3.2 nM.
